Test results taken from patent US9018206B2, “Carboxamide compounds and their use as calpain inhibitors” (AbbVie Deutschland GmbH & Co. KG, priority 2009, dated 2015).

Legend:
Assay type in all cases: biochemical
[1] = target: T1, cathepsin K activated from recombinant human procathepsin K (Homo sapiens, UniProt P43235); assay: Cathepsin K enzyme inhibition in vitro (kinetic fluorescence assay); conditions: Ki(cathepsin K)/Ki(calpain) ratio
T1 construct: purchased Calbiochem 342001; host or cells: E. coli
T1 sequence (P43235 115-329): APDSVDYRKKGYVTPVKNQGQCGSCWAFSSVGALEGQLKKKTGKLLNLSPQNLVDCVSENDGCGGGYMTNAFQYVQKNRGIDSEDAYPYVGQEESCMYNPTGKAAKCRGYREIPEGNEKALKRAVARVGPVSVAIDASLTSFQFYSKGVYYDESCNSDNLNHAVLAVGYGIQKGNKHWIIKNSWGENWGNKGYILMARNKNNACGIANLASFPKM
Protocol: (§1) Testing for blockade of the corresponding enzymic activities was carried out by means of kinetic fluorescence assays (excitation 390 nm, emission 460 nm).
(§2) Apparent Ki values were calculated from the experimentally determined IC50 values by the Cheng-Prussoff relation assuming a reversible competitive enzyme inhibition. The Km values of the substrates used under the assay conditions indicated above were: 90 μM (Z-Phe-Arg-AMC, cathepsin B), 10 μM (Z-Gly-Pro-Arg-AMC, cathepsin K), 2 μM (Z-Phe-Arg-AMC, cathepsin L), and 30 μM (Z-Val-Val-Arg-AMC, cathepsin S).
(§3) The indicated Ki values are averages of the inhibition constants calculated on the basis of 2 to 4 independent dose-effect plots.
(§4) • 20 nM calpain-I—isolated from human erythrocytes (Calbiochem #208713), 100 μM Suc-Leu-Tyr-AMC (Bachem #I-1355) as substrate in buffer with 62 mM imidazole, 0.3 mM CaCl2, 0.10% CHAPS, 0.05% BSA, 1 mM DTT at pH 7.3 and room temperature. 1. Cathepsin B: • 0.25 nM cathepsin B—isolated from human liver (Calbiochem #219362), 100 μM Z-Phe-Arg-AMC (Bachem #I-1160) as substrate 50 mM MES, 2 mM EDTA, 0.05% Brij 35, 2.5 mM L-cysteine, pH 6.0, room temperature. 3. Cathepsin K: • 3 nM cathepsin K activated from recombinant human procathepsin K from E. coli (Calbiochem #342001), 10 μM Z-Gly-Pro-Arg-AMC (Biomol #P-142) as substrate in 50 mM MES, 2 mM EDTA, 0.05% Brij 35, 2.5 mM L-cysteine, pH 6.0, room temperature. 4. Cathepsin L: • 1 nM cathepsin L—isolated from human liver (Calbiochem #219402), 2 μM Z-Phe-Arg-AMC (Bachem #I-1160) as substrate in 50 mM MES, 2 mM EDTA, 0.05% Brij 35, 2.5 mM L-cysteine, pH 6.0, room temperature. 5. Cathepsin S: • 0.5 nM recombinant human cathepsin S from E. coli (Calbiochem #219343), 20 μM Z-Val-Val-Arg-AMC (Bachem #I-1540) as substrate in 50 mM MES, 2 mM EDTA, 0.05% Brij 35, 2.5 mM L-cysteine, pH 6.0, room temperature.

[2] = target: T2, calpain-I isolated from human erythrocytes (Homo sapiens, UniProt P07384); assay: Calpain I enzyme inhibition in vitro (kinetic fluorescence assay); conditions: apparent Ki from IC50 (Cheng-Prussoff); 20 nM calpain-I, 100 μM Suc-Leu-Tyr-AMC, pH 7.3, room temperature
T2 construct: calpain-I—isolated from human erythrocytes; purchased Calbiochem 208713; host or cells: human erythrocytes (tissue-derived)
T2 sequence (P07384 1-714): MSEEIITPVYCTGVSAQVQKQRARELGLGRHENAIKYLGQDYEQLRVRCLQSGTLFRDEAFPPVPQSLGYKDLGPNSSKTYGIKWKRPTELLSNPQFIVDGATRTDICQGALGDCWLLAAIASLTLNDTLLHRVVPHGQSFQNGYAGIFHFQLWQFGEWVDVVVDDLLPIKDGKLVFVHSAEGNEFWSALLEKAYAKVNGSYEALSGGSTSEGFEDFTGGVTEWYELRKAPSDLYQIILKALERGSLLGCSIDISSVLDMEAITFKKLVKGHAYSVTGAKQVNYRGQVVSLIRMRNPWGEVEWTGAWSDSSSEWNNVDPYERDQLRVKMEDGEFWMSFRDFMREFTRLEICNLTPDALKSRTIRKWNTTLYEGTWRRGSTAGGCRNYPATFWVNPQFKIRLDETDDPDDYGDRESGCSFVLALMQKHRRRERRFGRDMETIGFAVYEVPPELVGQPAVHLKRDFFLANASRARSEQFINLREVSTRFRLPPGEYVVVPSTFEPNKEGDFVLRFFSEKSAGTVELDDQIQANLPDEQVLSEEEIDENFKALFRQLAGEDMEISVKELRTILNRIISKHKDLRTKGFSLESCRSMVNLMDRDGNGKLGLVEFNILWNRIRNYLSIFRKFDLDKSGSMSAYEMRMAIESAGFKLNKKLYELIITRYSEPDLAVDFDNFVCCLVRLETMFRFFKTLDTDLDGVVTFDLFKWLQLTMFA
T2 sequence (P04632 1-268 partner): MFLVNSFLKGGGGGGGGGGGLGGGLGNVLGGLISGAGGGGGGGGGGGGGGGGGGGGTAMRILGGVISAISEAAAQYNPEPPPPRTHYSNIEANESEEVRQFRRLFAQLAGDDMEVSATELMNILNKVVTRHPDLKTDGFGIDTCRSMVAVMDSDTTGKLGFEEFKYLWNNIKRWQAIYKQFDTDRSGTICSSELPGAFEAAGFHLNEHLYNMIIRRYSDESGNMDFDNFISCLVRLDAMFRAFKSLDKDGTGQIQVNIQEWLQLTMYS
Protocol: as §1, §2, §3, §4

[3] = target: T3, recombinant human cathepsin S (Homo sapiens, UniProt P25774); assay: Cathepsin S enzyme inhibition in vitro (kinetic fluorescence assay); conditions: Ki(cathepsin S)/Ki(calpain) ratio
T3 construct: purchased Calbiochem 219343; host or cells: E. coli
T3 sequence (P25774 115-331): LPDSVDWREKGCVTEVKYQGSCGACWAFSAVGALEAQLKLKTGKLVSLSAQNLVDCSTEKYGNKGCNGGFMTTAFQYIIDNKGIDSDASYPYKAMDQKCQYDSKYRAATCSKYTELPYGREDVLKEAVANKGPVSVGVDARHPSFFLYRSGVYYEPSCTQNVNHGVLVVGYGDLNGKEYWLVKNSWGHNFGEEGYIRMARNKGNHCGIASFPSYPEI
Protocol: as §1, §2, §3, §4

[4] = target: T4, cathepsin B isolated from human liver (Homo sapiens, UniProt P07858); assay: Cathepsin B enzyme inhibition in vitro (kinetic fluorescence assay); conditions: Ki(cathepsin B)/Ki(calpain) ratio
T4 construct: cathepsin B—isolated from human liver; purchased Calbiochem 219362; host or cells: human liver (tissue-derived)
Protocol: as §1, §2, §3, §4

[5] = target: T5, cathepsin L isolated from human liver (Homo sapiens, UniProt P07711); assay: Cathepsin L enzyme inhibition in vitro (kinetic fluorescence assay); conditions: Ki(cathepsin L)/Ki(calpain) ratio
T5 construct: cathepsin L—isolated from human liver; purchased Calbiochem 219402; host or cells: human liver (tissue-derived)
T5 sequence (P07711 114-333): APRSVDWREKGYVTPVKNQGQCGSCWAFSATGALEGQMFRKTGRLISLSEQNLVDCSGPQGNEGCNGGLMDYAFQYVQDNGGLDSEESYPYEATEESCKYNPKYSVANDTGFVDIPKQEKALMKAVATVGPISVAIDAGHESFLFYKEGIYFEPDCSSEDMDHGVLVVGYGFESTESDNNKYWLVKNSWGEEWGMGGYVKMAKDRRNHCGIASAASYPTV
Protocol: as §1, §2, §3, §4

NC(=O)C(=O)C(Cc1ccccc1)NC(=O)[C@H]1CCC(=O)N1Cc1cccc(OC(F)(F)F)c1 (stereo partly drawn) [Example 13, (2R)—N-(4-Amino-3,4-dioxo-1-phenylbutan-2-yl)-5-oxo-1-[3-(trifluoromethoxy)-benzyl]pyrrolidine-2-carboxamide]
Sel cat. K [1]: +++ (Ki(cathepsin K)/Ki(calpain) ratio of >30) | Ki [2]: 100 to 600 nM | Sel cat. S [3]: ++ (30<Ki(cathepsin B)/Ki(calpain)≦100) | Sel cat. B [4]: + (5<Ki(cathepsin B)/Ki(calpain)≦10)

O=C(NNC(=O)c1ccccc1)C(=O)C(Cc1ccccc1)NC(=O)[C@H]1CCC(=O)N1Cc1ccccc1 (mixture of isomers) [Example 57, (2R)—N-(4-(2-Benzoylhydrazinyl)-3,4-dioxo-1-phenylbutan-2-yl)-1-benzyl-5-oxopyrrolidine-2-carboxamide]
Sel cat. K [1]: ++ (10<Ki(cathepsin B)/Ki(calpain)≦30) | Ki [2]: 50 to 100 nM | Sel cat. S [3]: +++ (Ki(cathepsin S)/Ki(calpain) ratio of >100) | Sel cat. B [4]: + (5<Ki(cathepsin B)/Ki(calpain)≦10)

CCNC(=O)C(=O)C(Cc1ccccc1)NC(=O)[C@H]1CCC(=O)N1Cc1c(F)cccc1F (mixture of isomers) [Example 49, (2R)-1-(2,6-Difluorobenzyl)-N-(4-(ethylamino)-3,4-dioxo-1-phenylbutan-2-yl)-5-oxopyrrolidine-2-carboxamide]
Ki [2]: 100 to 600 nM | Sel cat. L [5]: ++ (10<Ki(cathepsin B)/Ki(calpain)≦30) | Sel cat. B [4]: +++ (Ki(cathepsin B)/Ki(calpain) ratio of >30)

O=C(NCCCc1ccccc1)C(=O)C(Cc1ccccc1)NC(=O)[C@H]1CCC(=O)N1Cc1ccccc1 (mixture of isomers) [Example 33, (2R)-1-Benzyl-N-(3,4-dioxo-1-phenyl-4-(3-phenylpropylamino)butan-2-yl)-5-oxopyrrolidine-2-carboxamide]
Sel cat. K [1]: ++ (10<Ki(cathepsin B)/Ki(calpain)≦30) | Ki [2]: 50 to 100 nM | Sel cat. S [3]: ++ (30<Ki(cathepsin B)/Ki(calpain)≦100) | Sel cat. B [4]: ++ (10<Ki(cathepsin B)/Ki(calpain)≦30)

O=C(NC1CC1)C(=O)C(Cc1ccccc1)NC(=O)[C@H]1CCC(=O)N1Cc1ccc(C(F)(F)F)cc1 (mixture of isomers) [Example 58, (2R)—N-(4-(Cyclopropylamino)-3,4-dioxo-1-phenylbutan-2-yl)-5-oxo-1-(4-(trifluoromethyl)benzyl)pyrrolidine-2-carboxamide]
Sel cat. K [1]: + (5<Ki(cathepsin K)/Ki(calpain)≦10) | Ki [2]: 100 to 600 nM | Sel cat. S [3]: ++ (30<Ki(cathepsin B)/Ki(calpain)≦100) | Sel cat. B [4]: + (5<Ki(cathepsin B)/Ki(calpain)≦10)

NC(=O)C(=O)C(Cc1ccccc1)NC(=O)C1CCS(=O)(=O)N1Cc1ccccc1 (stereo not drawn) [Example 10, N-(4-Amino-3,4-dioxo-1-phenylbutan-2-yl)-2-benzylisothiazolidine-3-carboxamide 1,1-dioxide]
Ki [2]: < 50 nM | Sel cat. L [5]: ++ (10<Ki(cathepsin B)/Ki(calpain)≦30) | Sel cat. B [4]: +++ (Ki(cathepsin B)/Ki(calpain) ratio of >30)

NC(=O)C(=O)C(Cc1ccccc1)NC(=O)[C@@H]1CCC(=O)N1Cc1ccccc1 (stereo partly drawn) [Example 2, (2S)—N-(4-Amino-3,4-dioxo-1-phenylbutan-2-yl)-1-benzyl-5-oxopyrrolidine-2-carboxamide]
Sel cat. K [1]: ++ (10<Ki(cathepsin B)/Ki(calpain)≦30) | Ki [2]: 100 to 600 nM | Sel cat. L [5]: + (5<Ki(cathepsin L)/Ki(calpain)≦10)

O=C(NC1CCCCC1)C(=O)C(Cc1ccccc1)NC(=O)[C@H]1CCC(=O)N1Cc1ccccc1 (mixture of isomers) [Example 56, (2R)-1-Benzyl-N-(4-(cyclohexylamino)-3,4-dioxo-1-phenylbutan-2-yl)-5-oxopyrrolidine-2-carboxamide]
Sel cat. K [1]: + (5<Ki(cathepsin K)/Ki(calpain)≦10) | Ki [2]: 50 to 100 nM | Sel cat. S [3]: ++ (30<Ki(cathepsin B)/Ki(calpain)≦100) | Sel cat. B [4]: ++ (10<Ki(cathepsin B)/Ki(calpain)≦30)

C[C@H]1C[C@H](C(=O)NC(Cc2ccccc2)C(=O)C(N)=O)N(Cc2ccccc2)C1=O (stereo partly drawn) [Example 19, (2R,4S)—N-(4-Amino-3,4-dioxo-1-phenylbutan-2-yl)-1-benzyl-4-methyl-5-oxopyrrolidine-2-carboxamide]
Ki [2]: < 50 nM | Sel cat. L [5]: ++ (10<Ki(cathepsin B)/Ki(calpain)≦30) | Sel cat. B [4]: ++ (10<Ki(cathepsin B)/Ki(calpain)≦30)

O=C(NC1CC1)C(=O)C(Cc1ccccc1)NC(=O)[C@H]1CCC(=O)N1Cc1c(F)cccc1F (mixture of isomers) [Example 48, (2R)—N-(4-(Cyclopropylamino)-3,4-dioxo-1-phenylbutan-2-yl)-1-(2,6-difluorobenzyl)-5-oxopyrrolidine-2-carboxamide]
Ki [2]: 100 to 600 nM | Sel cat. L [5]: ++ (10<Ki(cathepsin B)/Ki(calpain)≦30) | Sel cat. B [4]: +++ (Ki(cathepsin B)/Ki(calpain) ratio of >30)

COc1cccc(CN2C(=O)CC[C@@H]2C(=O)NC(Cc2ccccc2)C(=O)C(N)=O)c1 (stereo partly drawn) [Example 6, (2R)—N-(4-Amino-3,4-dioxo-1-phenylbutan-2-yl)-1-(3-methoxybenzyl)-5-oxopyrrolidine-2-carboxamide]
Sel cat. K [1]: +++ (Ki(cathepsin K)/Ki(calpain) ratio of >30) | Ki [2]: < 50 nM | Sel cat. S [3]: ++ (30<Ki(cathepsin B)/Ki(calpain)≦100) | Sel cat. B [4]: + (5<Ki(cathepsin B)/Ki(calpain)≦10)
